According to patent US7297700B2, “Bicycloheteroaryl compounds as P2X7 modulators and uses thereof” (Renovis, Inc., priority 2005, dated 2007):

Test system: IL-1β release from THP-1 cells
Assay: IL-1β Release Assay (Alternate Method), THP-1 cells
Assay type: cell-based, human
Details: Homo sapiens, THP-1, read-out: IL-1β % inhibition
Procedure: THP-1 cells (ATCC Cat #285-IF-100) are plated in 96 well plates at a concentration of 200,000 cells per well and allowed to differentiate in RPMI-1640 media (ATCC Cat #30-2001) containing 10% FBS, 100 IU/mL penicillin, 100 ug/mL streptomycin, 100 ng/mL LPS and 100 ng/mL IFN-γ for 16 hours. Following differentiation, the cells are treated for an additional 2 hours in RPMI-1640 media containing 100 IU/mL penicillin, 100 ug/mL streptomycin and fresh LPS at 100 ng/mL. The cells are then pretreated for 30 minutes with the compound of interest at the appropriate concentration in RPMI media containing 100 IU/mL penicillin, 100 ug/mL streptomycin. Following the pretreatment 2′, 3′-O-(4-benzoylbenzoyl)-adenosine 5′-triphosphate (Sigma Aldrich Cat#B6396) is added to a final concentration of 250 uM and the cells incubated for an additional 45 minutes. 30 uL of cell supernatant is then collected and IL-1β levels determined via ELISA (R&D systems Cat. #HSLB50) according to manufacturer's recommendations using the Tecan Safire plate reader. Background adjusted IL-1β levels of drug treated and non-treated cells are used to calculate the percent inhibition.

SMILES | inhibition at 0.3 µM
O=C(Nc1ncnc2c1CCN(S(=O)(=O)c1ccccc1)C2)C12CC3CC(CC(C3)C1)C2 [Compound 481] | 25 to 50%
O=C(CC12CC3CC(CC(C3)C1)C2)Nc1ncnc2c1CCN(CCCO)C2 [Compound 19, 2-adamantan-1-yl-N-[7-(3-hydroxy-propyl)-5,6,7,8-tetrahydro-pyrido[3,4-d]pyrimidin-4-yl]-acetamide] | 0 to 25%

Same assay, conditions: at 0.3 μM; THP-1 cells

SMILES | IL-1β % inhibition
Cc1ccc(S(=O)(=O)N2CCc3c(ncnc3NC(=O)CC34CC5CC(CC(C5)C3)C4)C2)cc1Cl [Compound 207] | +++ (compound exhibited 50-75% inhibition at 0.3 μM)
O=C(CC12CC3CC(CC(C3)C1)C2)Nc1ncnc2c1CCN(C(=O)COCc1ccccc1)C2 [Compound 256] | +++ (compound exhibited 50-75% inhibition at 0.3 μM)
O=C(NCC12CC3CC(CC(C3)C1)C2)c1ncnc2c1CCN(Cc1ccccc1Cl)C2 [Compound 337] | ++ (compound exhibited 25-50% inhibition at 0.3 μM)
O=C(NCC12CC3CC(CC(C3)C1)C2)c1ncnc2c1CCN(Cc1ccc3c(c1)OCCO3)C2 [Compound 138] | ++++ (compound exhibited 75% or greater inhibition at 0.3 μM)
O=C(CC12CC3CC(CC(C3)C1)C2)Nc1ncnc2c1CCN(C(=O)COc1ccc(Cl)cc1)C2 [Compound 264] | +++ (compound exhibited 50-75% inhibition at 0.3 μM)
O=C(CC12CC3CC(CC(C3)C1)C2)Nc1ncnc2c1CCN(C(=O)c1ccno1)C2 [Compound 296] | +++ (compound exhibited 50-75% inhibition at 0.3 μM)
O=C(CC12CC3CC(CC(C3)C1)C2)Nc1ncnc2c1CCN(C(=O)c1ccc(C(F)(F)F)cc1)C2 [Compound 243] | +++ (compound exhibited 50-75% inhibition at 0.3 μM)
CC(C)(C(=O)Nc1ncnc2c1CCN(S(=O)(=O)Cc1ccc(Cl)c(Cl)c1)C2)C12CC3CC(CC(C3)C1)C2 [Compound 356] | + (compound exhibited 0-25% inhibition at 0.3 μM)
CC(C)(C)CC(=O)N1CCc2c(ncnc2NC(=O)CC23CC4CC(C)(CC(C)(C4)C2)C3)C1 [Compound 388] | + (compound exhibited 0-25% inhibition at 0.3 μM)
Cc1ccc(CN2CCc3c(ncnc3NC(=O)CC34CC5CC(CC(C5)C3)C4)C2)c2ccccc12 [Compound 112] | + (compound exhibited 0-25% inhibition at 0.3 μM)
CC12CC3CC(C)(C1)CC(CC(=O)Nc1ncnc4c1CCN(C(=O)CC1CCCC1)C4)(C3)C2 [Compound 384] | ++ (compound exhibited 25-50% inhibition at 0.3 μM)
O=C(CC12CC3CC(CC(C3)C1)C2)Nc1ncnc2c1CCN(Cc1ccc(C(F)(F)F)c(F)c1)C2 [Compound 97] | ++ (compound exhibited 25-50% inhibition at 0.3 μM)
COc1ccccc1CN1CCc2c(ncnc2NC(=O)CC23CC4CC(CC(C4)C2)C3)C1 [Compound 29] | + (compound exhibited 0-25% inhibition at 0.3 μM)
CC12CC3(C)CC(C)(C1)CC(C(=O)Nc1ncnc4c1CCN(Cc1ccccc1)C4)(C2)C3 [Compound 346] | + (compound exhibited 0-25% inhibition at 0.3 μM)
CC1(C)CCCC(O)(CNC(=O)c2ncnc3c2CCN(Cc2ccccc2)C3)C1 (stereo not drawn) [Compound 59] | + (compound exhibited 0-25% inhibition at 0.3 μM)
O=C(CC12CC3CC(CC(C3)C1)C2)Nc1ncnc2c1CCN(S(=O)(=O)Cc1ccc(F)cc1)C2 [Compound 184] | ++++ (compound exhibited 75% or greater inhibition at 0.3 μM)
COc1ccc(CN2CCc3c(ncnc3NC(=O)CC34CC5CC(CC(C5)C3)C4)C2)c(F)c1 [Compound 95] | ++++ (compound exhibited 75% or greater inhibition at 0.3 μM)
O=C(CC12CC3CC(CC(C3)C1)C2)Nc1ncnc2c1CCN(C(=O)c1ccc(Cl)nc1)C2 [Compound 281] | + (compound exhibited 0-25% inhibition at 0.3 μM)
Cc1noc(C)c1S(=O)(=O)N1CCc2c(ncnc2NC(=O)CC23CC4CC(CC(C4)C2)C3)C1 [Compound 169] | ++ (compound exhibited 25-50% inhibition at 0.3 μM)
CC(C)(C(=O)Nc1ncnc2c1CCN(Cc1ccc3c(c1)OCCO3)C2)C12CC3CC(CC(C3)C1)C2 [Compound 350] | + (compound exhibited 0-25% inhibition at 0.3 μM)

Same assay, conditions: at 0.3 μM; THP-1 cells, BzATP-stimulated

SMILES | IL-1β % inhibition
O=C(Nc1ncnc2c1CCN(S(=O)(=O)c1cccc(OC(F)(F)F)c1)C2)C12CC3CC(CC(C3)C1)C2 [Compound 497] | + (compound exhibited 0-25% inhibition at 0.3 μM)
O=C(Nc1ncnc2c1CCN(Cc1ccc3c(c1)OCO3)C2)C12CC3CC(CC(C3)C1)C2 [Compound 564] | ++++ (compound exhibited 75% or greater inhibition at 0.3 μM)
CC(CN1CCc2c(ncnc2NC(=O)C23CC4CC(CC(C4)C2)C3)C1)c1ccccc1 (stereo not drawn) [Compound 554] | ++++ (compound exhibited 75% or greater inhibition at 0.3 μM)
O=C(c1ccc(Cl)nc1)N1CCc2c(ncnc2NC(=O)C23CC4CC(CC(C4)C2)C3)C1 [Compound 453] | + (compound exhibited 0-25% inhibition at 0.3 μM)
O=C(c1ccccc1F)N1CCc2c(ncnc2NC(=O)C23CC4CC(CC(C4)C2)C3)C1 [Compound 452] | ++ (compound exhibited 25-50% inhibition at 0.3 μM)
O=C(Nc1ncnc2c1CCN(S(=O)(=O)c1ccc(F)cc1Cl)C2)C12CC3CC(CC(C3)C1)C2 [Compound 545] | ++ (compound exhibited 25-50% inhibition at 0.3 μM)
COc1ccc(CN2CCc3c(ncnc3NC(=O)C34CC5CC(CC(C5)C3)C4)C2)c(OC)c1 [Compound 608] | + (compound exhibited 0-25% inhibition at 0.3 μM)
Cc1ccc(F)cc1S(=O)(=O)N1CCc2c(ncnc2NC(=O)C23CC4CC(CC(C4)C2)C3)C1 [Compound 546] | + (compound exhibited 0-25% inhibition at 0.3 μM)
Cc1ccc2occ(CN3CCc4c(ncnc4NC(=O)C45CC6CC(CC(C6)C4)C5)C3)c(=O)c2c1 [Compound 567] | ++ (compound exhibited 25-50% inhibition at 0.3 μM)
Cc1ccccc1C(=O)N1CCc2c(ncnc2NC(=O)C23CC4CC(CC(C4)C2)C3)C1 [Compound 450] | + (compound exhibited 0-25% inhibition at 0.3 μM)
O=C(c1ccc2ccccc2c1)N1CCc2c(ncnc2NC(=O)C23CC4CC(CC(C4)C2)C3)C1 [Compound 460] | + (compound exhibited 0-25% inhibition at 0.3 μM)
O=C(Nc1ncnc2c1CCN(Cc1cccc(Oc3cccc(C(F)(F)F)c3)c1)C2)C12CC3CC(CC(C3)C1)C2 [Compound 626] | ++ (compound exhibited 25-50% inhibition at 0.3 μM)
O=C(Nc1ncnc2c1CCN(Cc1cccc3c1OCO3)C2)C12CC3CC(CC(C3)C1)C2 [Compound 596] | +++ (compound exhibited 50-75% inhibition at 0.3 μM)
O=C(c1ccc(C(F)(F)F)cc1F)N1CCc2c(ncnc2NC(=O)C23CC4CC(CC(C4)C2)C3)C1 [Compound 438] | ++ (compound exhibited 25-50% inhibition at 0.3 μM)
O=C(Nc1ncnc2c1CCN(Cc1cccc(F)c1)C2)C12CC3CC(CC(C3)C1)C2 [Compound 605] | + (compound exhibited 0-25% inhibition at 0.3 μM)
O=C(Nc1ncnc2c1CCN(S(=O)(=O)Cc1cc(C(F)(F)F)cc(C(F)(F)F)c1)C2)C12CC3CC(CC(C3)C1)C2 [Compound 515] | +++ (compound exhibited 50-75% inhibition at 0.3 μM)
COc1cccc(CC(=O)N2CCc3c(ncnc3NC(=O)C34CC5CC(CC(C5)C3)C4)C2)c1 [Compound 433] | ++ (compound exhibited 25-50% inhibition at 0.3 μM)
